{"source": "patent US4767764A", "about": "“Alkoxyalkyl and alkylmercaptoalkyl substituted bridged benzofuroisoquinolines having opioid antagonist and/or appetite-controlling properties” (E. I. Du Pont de Nemours and Company, priority 1986, dated 1988)", "key": {"kappa receptor": {"test_system": "kappa receptor", "conditions": "cited from earlier work"}, "[1]": {"molecular_target": "T1, mu opioid receptor (morphine analgesia) (Mus musculus, UniProt P42866)", "T1 construct": "Male CF1 mice (fasted 17-21 hours); from tissue; host or cells: live male CF1 mice (in vivo, whole animal; endogenous receptor)", "T1 sequence (P42866 whole entry)": "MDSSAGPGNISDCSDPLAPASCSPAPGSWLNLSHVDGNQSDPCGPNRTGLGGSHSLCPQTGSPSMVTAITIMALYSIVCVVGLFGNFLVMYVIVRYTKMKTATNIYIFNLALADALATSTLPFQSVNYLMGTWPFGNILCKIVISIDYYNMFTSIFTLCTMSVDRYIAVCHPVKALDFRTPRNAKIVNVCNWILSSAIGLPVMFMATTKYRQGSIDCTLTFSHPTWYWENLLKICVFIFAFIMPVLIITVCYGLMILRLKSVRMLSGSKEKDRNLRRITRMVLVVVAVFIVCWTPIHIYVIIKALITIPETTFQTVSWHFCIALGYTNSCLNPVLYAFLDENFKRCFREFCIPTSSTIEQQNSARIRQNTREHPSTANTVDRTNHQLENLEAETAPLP", "assay": "antagonism of morphine analgesia in PQW test (mu antagonist potency)", "format": "in vivo, mouse (male CF1)", "conditions": "sc, read-out: ED50, antagonism of morphine analgesia in PQW test (mu antagonist potency)"}, "[2]": {"molecular_target": "T2, kappa opioid receptor (U-50,488H analgesia) (Mus musculus, UniProt P33534)", "T2 construct": "Male CF1 mice (fasted 17-21 hours); from tissue; host or cells: live male CF1 mice (in vivo, whole animal; endogenous receptor)", "T2 sequence (P33534 whole entry)": "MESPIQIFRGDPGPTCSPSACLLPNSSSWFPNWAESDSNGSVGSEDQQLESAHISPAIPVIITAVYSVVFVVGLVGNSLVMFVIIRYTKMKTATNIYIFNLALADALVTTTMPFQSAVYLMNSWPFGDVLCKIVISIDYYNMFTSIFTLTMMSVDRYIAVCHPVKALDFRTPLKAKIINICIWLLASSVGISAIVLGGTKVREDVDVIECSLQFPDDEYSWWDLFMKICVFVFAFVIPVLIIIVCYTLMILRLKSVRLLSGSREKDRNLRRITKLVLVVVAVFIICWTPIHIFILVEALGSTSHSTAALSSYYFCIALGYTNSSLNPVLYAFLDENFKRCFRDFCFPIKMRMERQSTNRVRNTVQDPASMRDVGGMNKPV", "assay": "in vivo", "set-up": "species or system mouse (male CF1)", "conditions": "sc, read-out: ED50, antagonism of U-50,488H analgesia in PQW test (kappa antagonist potency)"}, "[3]": {"test_system": "PQ-induced writhing in mice", "assay": "animal or person", "format": "in vivo, mouse (male CF1)", "conditions": "Mus musculus, sc, read-out: ED50, antagonism of PQ-induced writhing in mice"}, "feeding": {"test_system": "feeding", "conditions": "in vivo; cited from earlier work"}, "food intake": {"test_system": "food intake", "conditions": "in vivo; cited from earlier work"}, "[4]": {"test_system": "μ (mu), κ (kappa) and δ (delta) opioid receptors", "conditions": "established opioid antagonists; cited from earlier work"}, "[5]": {"test_system": "animal models of hemorrhagic, septic, and neurogenic shock", "conditions": "in vivo; cited from earlier work"}, "spinal cord injury": {"test_system": "spinal cord injury", "conditions": "rabbit, versus WIN 44,441-3; cited from earlier work"}}}
{"smiles": "CN1CC[C@]2(C)c3cc(O)ccc3C[C@H]1C2(C)CCC(=O)CCC1CCCC1.CS(=O)(=O)O", "note": "(stereo partly drawn) [WIN 44,441-3]", "values": [{"measurement": "kappa receptor activity/selectivity in words", "setting": "kappa receptor", "result": "enhanced activity at the kappa receptor"}]}
{"smiles": "CCCOCC1CC2C=CC13CN(CCC)CCC31c3cccc(O)c3OC21", "note": "(stereo not drawn) [Example 4, 5-(n-propoxymethyl)-3-n-propyl-1,2,3,4,5,6,7,7a-octahydro-4a,7-ethenobenzofuro[3,2-e]isoquinolin-9-ol]", "values": [{"measurement": "ED50", "setting": "[1]", "result": 0.19, "unit": "mg/kg"}, {"measurement": "ED50", "setting": "[2]", "result": 0.05, "unit": "mg/kg"}, {"measurement": "ED50", "setting": "[3]", "result": "> 81", "unit": "mg/kg"}]}
{"smiles": "CCC1C2Cc3ccc(O)cc3C1(CC)CCN2Cc1ccoc1", "note": "(stereo not drawn) [MR 2266, reference compound]", "values": [{"measurement": "ED50", "setting": "[1]", "result": 0.109, "unit": "mg/kg"}, {"measurement": "ED50", "setting": "[2]", "result": 0.115, "unit": "mg/kg"}, {"measurement": "ED50", "setting": "[3]", "result": "> 81", "unit": "mg/kg"}]}
{"smiles": "CCCN1CCC23c4cccc(O)c4OC2C2CCC3(C1)C(COC)C2", "note": "(stereo not drawn) [Example 1, 5-Methoxymethyl-3-n-propyl-1,2,3,4,5,6,7,7a-octahydro-4a,7-ethanobenzofuro[3,2-e]isoquinolin-9-ol]", "values": [{"measurement": "ED50", "setting": "[1]", "result": 0.014, "unit": "mg/kg"}, {"measurement": "ED50", "setting": "[2]", "result": 0.004, "unit": "mg/kg"}, {"measurement": "ED50", "setting": "[3]", "result": "> 81", "unit": "mg/kg"}]}
{"smiles": "Oc1cccc2c1OC1C3CCC4(CN(CC5CC5)CCC214)C(COCCCc1ccccc1)C3", "note": "(stereo not drawn) [Example 7, 3-cyclopropylmethyl-5-(3-phenyl-n-propoxymethyl)-1,2,3,4,5,6,7,7a-octahydro-4a,7-ethanolbenzofuro[3,2-e]isoquinolin-9-ol]", "values": [{"measurement": "ED50", "setting": "[1]", "result": 0.29, "unit": "mg/kg"}, {"measurement": "ED50", "setting": "[2]", "result": 0.24, "unit": "mg/kg"}, {"measurement": "ED50", "setting": "[3]", "result": "> 81", "unit": "mg/kg"}]}
{"smiles": "COCC1CC2CCC13CN(CC1CC1)CCC31c3cccc(O)c3OC21", "note": "(stereo not drawn) [Example 6, 3-Cyclopropylmethyl-5-methoxymethyl-1,2,3,4,5,6,7,7a-octahydro-4a,7-ethanobenzofuro[3,2-e]isoquinolin-9-ol]", "values": [{"measurement": "ED50", "setting": "[1]", "result": 0.008, "unit": "mg/kg"}, {"measurement": "ED50", "setting": "[2]", "result": 0.007, "unit": "mg/kg"}, {"measurement": "ED50", "setting": "[3]", "result": "> 81", "unit": "mg/kg"}]}
{"smiles": "CCCN1CCC23c4cccc(O)c4OC2C2CCC3(C1)C(COCC)C2", "note": "(stereo not drawn) [Example 2, 5-Ethoxymethyl-3-n-propyl-1,2,3,4,5,6,7,7a-octahydro-4a,7-ethanobenzofuro[3,2-e]isoquinolin-9-ol]", "values": [{"measurement": "ED50", "setting": "[1]", "result": 0.024, "unit": "mg/kg"}, {"measurement": "ED50", "setting": "[2]", "result": 0.012, "unit": "mg/kg"}, {"measurement": "ED50", "setting": "[3]", "result": "> 81", "unit": "mg/kg"}]}
{"smiles": "CCCOCC1CC2CCC13CN(CCC)CCC31c3cccc(O)c3OC21", "note": "(stereo not drawn) [Example 3, 5-(n-Propoxymethyl)-3-n-propyl-1,2,3,4,5,6,7,7a-octahydro-4a,7-ethanobenzofuro[3,2-e]isoquinolin-9-ol]", "values": [{"measurement": "ED50", "setting": "[1]", "result": 0.06, "unit": "mg/kg"}, {"measurement": "ED50", "setting": "[2]", "result": 0.025, "unit": "mg/kg"}, {"measurement": "ED50", "setting": "[3]", "result": "> 81", "unit": "mg/kg"}]}
{"smiles": "CCCN1CCC23c4cccc(O)c4OC2C2CCC3(C1)C(CSC)C2", "note": "(stereo not drawn) [Example 5, 5-methylthiomethyl-3-n-propyl-1,2,3,4,5,6,7,7a-octahydro-4a,7-ethanobenzofuro[3,2-e]isoquinolin-9-ol]", "values": [{"measurement": "ED50", "setting": "[1]", "result": 0.1, "unit": "mg/kg"}, {"measurement": "ED50", "setting": "[2]", "result": 0.063, "unit": "mg/kg"}, {"measurement": "ED50", "setting": "[3]", "result": "> 81", "unit": "mg/kg"}]}
{"smiles": "CC[C@]12CCN(CC3CC3)[C@H](C(=O)c3ccc(O)cc31)[C@@H]2C", "note": "[ethylketocyclazocine]", "values": [{"measurement": "stimulation of feeding", "setting": "feeding", "result": "more potent stimulators of feeding than the mu agonist morphine"}]}
{"smiles": "O=C1CC[C@@]2(O)[C@H]3Cc4ccc(O)c5c4[C@@]2(CCN3CC2CC2)[C@H]1O5", "note": "[Naltrexone, naltrexone]", "values": [{"measurement": "decrease of food intake", "setting": "food intake", "result": "decrease food intake in several animal species"}, {"measurement": "effective doses for food intake versus mu mediated effects", "setting": "food intake", "result": "much larger than those useful in reversing mu mediated effects"}, {"measurement": "ED50", "setting": "[3]", "result": "> 81", "unit": "mg/kg"}, {"measurement": "opioid receptor binding in words", "setting": "[4]", "result": "bind to all three types of receptors, with greatest affinity for the mu receptor"}]}
{"smiles": "C=CCN1CC[C@]23c4c5ccc(O)c4O[C@H]2C(=O)CC[C@@]3(O)[C@H]1C5", "note": "[Naloxone, naloxone]", "values": [{"measurement": "effective doses in shock models versus mu mediated effects", "setting": "[5]", "result": "several orders of magnitude higher than doses useful in reversing mu mediated effects"}, {"measurement": "improvement of hemodynamic parameters in shock models", "setting": "[5]", "result": "improve hemodynamic parameters in a variety of animal models of hemorrhagic, septic, and neurogenic shock"}, {"measurement": "effectiveness in spinal stroke model", "setting": "spinal cord injury", "result": "less effective than WIN 44,441-3"}, {"measurement": "decrease of food intake", "setting": "food intake", "result": "decrease food intake in several animal species"}, {"measurement": "effective doses for food intake versus mu mediated effects", "setting": "food intake", "result": "much larger than those useful in reversing mu mediated effects"}, {"measurement": "ED50", "setting": "[3]", "result": "> 81", "unit": "mg/kg"}]}
